Patent publication US8921410B2, “Nicotinic acetylcholine receptor sub-type selective amides of diazabicycloalkanes” (Targacept, Inc., priority 2006, dated 2014)
Where two headings read alike, the source gives them in different places.

Tests used:
rat α4β2 nAChR subtype = rat α4β2 nAChR subtype (Rattus norvegicus (Rat), UniProt P09483+P12390); test: Radioligand ([3H]nicotine) binding at α4β2 nAChR, rat cortex membranes
Protocol: Preparation of Membranes from Rat Cortex:
(§1) Rats (female, Sprague-Dawley), weighing 150-250 g, were maintained on a 12 h light/dark cycle and were allowed free access to water and food supplied by PMI Nutrition International, Inc. Animals were anesthetized with 70% CO2, and then decapitated. Brains were removed and placed on an ice-cold platform. […] The homogenate was centrifuged at 18,000×g for 20 min at 4° C. and the resulting pellet was re-suspended in 20 volumes of ice-cold water. After 60 min incubation on ice, a new pellet was collected by centrifugation at 18,000×g for 20 min at 4° C. The final pellet was re-suspended in 10 volumes of buffer and stored at −20° C.
(§2) On the day of the assay, the frozen membranes were thawed and spun at 48,000×g for 20 min. The supernatant was decanted and discarded. The pellet was resuspended in Dulbecco's phosphate buffered saline (PBS, Life Technologies) pH 7.4 and homogenized with the Polytron for 6 seconds. Protein concentrations were determined using a Pierce BCA Protein Assay Kit, with bovine serum albumin as the standard (Pierce Chemical Company, Rockford, Ill.).
(§3) Tissue was rinsed 3 times in PBS, pH 7.4. Scintillation fluid was added to filters containing the washed tissue and allowed to equilibrate.
(§4) Data were expressed as disintegrations per minute (DPMs). Within each assay, each point had 2-3 replicates. The replicates for each point were averaged and plotted against the log of the drug concentration.

[1] = tested on: object recognition in rats; test: Novel object recognition (NOR) task; format: in vivo, rat; conditions: oral
Protocol: The novel object recognition (NOR) task was performed in accord with the description of Ennaceur and Delacour Behav. Brain Res. 100: 85-92 (1988).

α7 nAChR subtype = α7 nAChR subtype (Rattus norvegicus (Rat), UniProt Q05941); test: Radioligand ([3H]MLA) binding at α7 nAChR, rat hippocampus membranes
α7 nAChR subtype, sequence (Q05941 23-502): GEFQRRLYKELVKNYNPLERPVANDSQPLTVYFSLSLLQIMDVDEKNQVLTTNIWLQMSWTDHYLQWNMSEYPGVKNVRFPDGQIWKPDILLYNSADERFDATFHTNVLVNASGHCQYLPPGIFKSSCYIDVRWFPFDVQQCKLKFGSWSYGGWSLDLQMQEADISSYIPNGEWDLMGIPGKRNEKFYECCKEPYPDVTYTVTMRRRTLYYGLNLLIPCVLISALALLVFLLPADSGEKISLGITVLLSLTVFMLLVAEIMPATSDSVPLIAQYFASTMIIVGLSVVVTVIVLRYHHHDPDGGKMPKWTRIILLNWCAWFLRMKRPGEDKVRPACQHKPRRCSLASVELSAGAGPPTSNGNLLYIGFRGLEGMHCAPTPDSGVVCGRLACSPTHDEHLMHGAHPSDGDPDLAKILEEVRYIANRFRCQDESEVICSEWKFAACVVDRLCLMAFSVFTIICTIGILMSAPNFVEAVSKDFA
Protocol: as §1, with “CO2,” for “CO2, and”, “in 10” for “in 20”
The binding of [^3H]MLA was measured using a modification of the methods of Davies et al., Neuropharmacol. […] [^3H]MLA (Specific Activity=25-35 Ci/mmol) was obtained from Tocris. The binding of [^3H]MLA was determined using a 2 h incubation at 21° C. Incubations were conducted in 48-well micro-titre plates and contained about 200 μg of protein per well in a final incubation volume of 300 μL. The incubation buffer was PBS and the final concentration of [^3H]MLA was 5 nM. The binding reaction was terminated by filtration of the protein containing bound ligand onto glass fiber filters (GF/B, Brandel) using a Brandel Tissue Harvester at room temperature. […] Each filter was washed with PBS (3×1 mL) at room temperature. Non-specific binding was determined by inclusion of 50 μM non-radioactive MLA in selected wells.
The inhibition of [^3H]MLA binding by test compounds was determined by including seven different concentrations of the test compound in selected wells. Each concentration was replicated in triplicate. IC50 values were estimated as the concentration of compound that inhibited 50 percent of specific [^3H]MLA binding.

human α4β2 nAChR subtype = human α4β2 nAChR subtype (Homo sapiens (Human), UniProt P17787+P43681); test: Radioligand ([3H]nicotine) binding at α4β2 nAChR, SH-EP1/human α4β2 clonal cell membranes; conditions: read-out: Human α4β2 Ki
human α4β2 nAChR subtype, sequence (P43681 29-627): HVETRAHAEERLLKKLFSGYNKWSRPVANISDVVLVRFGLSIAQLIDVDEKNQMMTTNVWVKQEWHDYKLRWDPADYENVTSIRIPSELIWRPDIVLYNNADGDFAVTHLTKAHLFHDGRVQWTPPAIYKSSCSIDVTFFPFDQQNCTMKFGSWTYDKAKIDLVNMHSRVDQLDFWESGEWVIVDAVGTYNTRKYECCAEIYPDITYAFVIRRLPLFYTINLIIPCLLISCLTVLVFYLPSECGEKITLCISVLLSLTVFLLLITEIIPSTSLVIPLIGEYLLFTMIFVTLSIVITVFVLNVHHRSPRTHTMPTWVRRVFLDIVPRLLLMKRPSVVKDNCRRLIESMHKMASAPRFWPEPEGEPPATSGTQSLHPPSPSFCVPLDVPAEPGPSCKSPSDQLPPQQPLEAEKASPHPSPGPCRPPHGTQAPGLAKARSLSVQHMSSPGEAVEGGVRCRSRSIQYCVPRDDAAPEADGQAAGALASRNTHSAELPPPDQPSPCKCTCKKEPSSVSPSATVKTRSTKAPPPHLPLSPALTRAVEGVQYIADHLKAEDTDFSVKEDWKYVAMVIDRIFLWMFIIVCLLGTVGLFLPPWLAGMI
human α4β2 nAChR subtype, sequence (P17787 26-502): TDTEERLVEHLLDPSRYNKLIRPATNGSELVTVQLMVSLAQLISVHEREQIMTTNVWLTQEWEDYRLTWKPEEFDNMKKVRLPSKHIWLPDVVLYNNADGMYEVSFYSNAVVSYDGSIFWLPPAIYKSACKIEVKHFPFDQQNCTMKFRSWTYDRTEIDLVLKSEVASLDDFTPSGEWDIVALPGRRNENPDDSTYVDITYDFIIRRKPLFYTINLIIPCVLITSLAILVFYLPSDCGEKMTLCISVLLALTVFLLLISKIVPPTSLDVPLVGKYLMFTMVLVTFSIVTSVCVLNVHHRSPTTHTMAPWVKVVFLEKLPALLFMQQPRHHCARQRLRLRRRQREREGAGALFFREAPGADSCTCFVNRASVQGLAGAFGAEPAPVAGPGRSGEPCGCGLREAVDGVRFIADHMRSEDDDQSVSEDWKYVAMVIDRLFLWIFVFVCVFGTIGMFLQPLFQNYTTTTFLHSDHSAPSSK
Protocol: Preparation of Membranes from SH-EP1/Human α4β2 Clonal Cells:
Cell pellets from 40 150 mm culture dishes were pooled, and homogenized by Polytron (Kinematica GmbH, Switzerland) in 20 milliliters of ice-cold preparative buffer. The homogenate was centrifuged at 48,000 g for 20 minutes at 4° C. The resulting pellet was re-suspended in 20 mL of ice-cold preparative buffer and stored at −20° C.
as §2, §3, §4

[2] = [3H]nicotine 5 nM, rat cortex membranes
[3] = [3H]MLA 5 nM, rat hippocampus membranes
[4] = [3H]nicotine 5 nM, SH-EP1/human α4β2 membranes
[5] = did not bind sufficiently in HTS at α7 to warrant Ki determination

rat α4β2 nAChR subtype, sequence (P09483 31-630): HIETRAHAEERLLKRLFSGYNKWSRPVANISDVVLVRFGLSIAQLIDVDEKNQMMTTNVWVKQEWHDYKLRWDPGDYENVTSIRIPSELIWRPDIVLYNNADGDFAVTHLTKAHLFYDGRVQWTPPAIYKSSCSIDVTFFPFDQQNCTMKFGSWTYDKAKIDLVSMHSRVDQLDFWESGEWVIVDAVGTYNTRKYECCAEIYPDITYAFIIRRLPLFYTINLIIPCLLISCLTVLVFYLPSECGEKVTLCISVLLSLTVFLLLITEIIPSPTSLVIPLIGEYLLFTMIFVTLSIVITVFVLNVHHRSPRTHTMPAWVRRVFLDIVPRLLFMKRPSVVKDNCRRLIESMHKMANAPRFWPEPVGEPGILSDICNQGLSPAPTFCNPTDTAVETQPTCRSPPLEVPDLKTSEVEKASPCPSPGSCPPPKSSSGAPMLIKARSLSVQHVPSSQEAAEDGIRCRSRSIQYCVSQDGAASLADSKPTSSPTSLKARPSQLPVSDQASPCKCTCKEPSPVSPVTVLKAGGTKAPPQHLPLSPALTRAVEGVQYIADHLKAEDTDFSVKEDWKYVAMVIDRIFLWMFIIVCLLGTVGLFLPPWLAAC
rat α4β2 nAChR subtype, sequence (P12390 25-500): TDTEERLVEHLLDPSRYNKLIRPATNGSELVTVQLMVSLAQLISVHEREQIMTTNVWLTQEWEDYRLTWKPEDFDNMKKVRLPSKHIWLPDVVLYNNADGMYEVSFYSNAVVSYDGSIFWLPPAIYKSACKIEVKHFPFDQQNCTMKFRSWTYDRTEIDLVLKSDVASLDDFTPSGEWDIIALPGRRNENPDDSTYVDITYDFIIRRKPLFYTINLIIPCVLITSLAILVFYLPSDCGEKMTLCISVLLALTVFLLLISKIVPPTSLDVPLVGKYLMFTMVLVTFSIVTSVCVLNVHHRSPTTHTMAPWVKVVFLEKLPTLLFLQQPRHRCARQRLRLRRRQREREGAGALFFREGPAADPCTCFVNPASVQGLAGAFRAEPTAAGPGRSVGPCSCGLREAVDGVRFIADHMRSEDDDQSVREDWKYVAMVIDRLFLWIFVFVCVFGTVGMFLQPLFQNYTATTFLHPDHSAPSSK

| Compound | Ki (rat α4β2 nAChR subtype; [2]) | Ki (human α4β2 nAChR subtype; [4]) | α7 high through-put screening outcome (Ki not determined) (α7 nAChR subtype; [5]) | other results |
| --- | --- | --- | --- | --- |
| O=C(c1ccc(Cl)o1)N1CC2CNCC(C2)C1 [N-(5-chlorofuran-2-ylcarbonyl)-3,7-diazabicyclo[3.3.1]nonane] | 15 nM | 7.3 nM | – | activity in object recognition (OR) ([1]; 0.3 mg/kg (FIG. 2)): active; Ki (α7 nAChR subtype; [3]): 120000 nM |
| C#Cc1ccc(C(=O)N2CC3CNCC(C3)C2)o1 | 220 nM | 47 nM | ND; failed HTS | – |
| Cc1cc(C(F)(F)F)c(C(=O)N2CC3CNCC3C2)o1 (centres unmarked) | 1000 nM | 45 nM | ND; failed HTS | – |
| O=CNc1ccc(C(=O)N2CC3CNCC3C2)o1 (centres unmarked) | 53 nM | 63 nM | ND; failed HTS | – |
| Cc1ncoc1C(=O)N1CC2CNCC2C1 (centres unmarked) | 15 nM | 9.2 nM | – | Ki (α7 nAChR subtype; [3]): 210000 nM |
| O=C(c1cc(-c2ccoc2)co1)N1CC2CNCC(C2)C1 | 12 nM | 35 nM | ND; failed HTS | – |
| COc1ccoc1C(=O)N1CC2CNCC(C2)C1 | 560 nM | – | ND; failed HTS | Ki (human α4β2 nAChR subtype): 28 nM |
| Cc1nocc1C(=O)N1CC2CNCC(C2)C1 | 9.5 nM | 21 nM | ND; failed HTS | – |
| O=C(c1cc(-c2ccccc2)co1)N1CC2CNCC2C1 (centres unmarked) | 260 nM | 86 nM | – | Ki (α7 nAChR subtype; [3]): 12000 nM |
| O=C(c1ccco1)N1CC2CNCC(C2)C1 [N-(furan-2-ylcarbonyl)-3,7-diazabicyclo[3.3.1]nonane] | 31 nM | 9.9 nM | – | Ki (α7 nAChR subtype): 15000 nM |
| O=C(c1occc1F)N1CC2CNCC(C2)C1 | 110 nM | 57 nM | ND; failed HTS | – |
| O=C(c1occc1Cl)N1CC2CNCC2C1 (centres unmarked) | 2.8 nM | 2.4 nM | ND; failed HTS | – |
| O=C(c1occc1Br)N1CC2CNCC(C2)C1 | 79 nM | – | ND; failed HTS | Ki (human α4β2 nAChR subtype): 17 nM |
| CCCCC#Cc1coc(C(=O)N2CC3CNCC3C2)c1 (centres unmarked) | 43 nM | 21 nM | ND; failed HTS | – |
| O=C(c1ccc(F)o1)N1CC2CNCC(C2)C1 | 6.4 nM | – | ND; failed HTS | Ki (human α4β2 nAChR subtype): 4.6 nM |
| O=C(c1ccno1)N1CC2CNCC2C1 (centres unmarked) | 43 nM | 69 nM | – | α7 high through-put screening outcome (Ki not determined) (α7 nAChR subtype): ND; failed HTS |
| O=C(c1cc(-c2cc(F)cc(F)c2)co1)N1CC2CNCC(C2)C1 | 6.3 nM | 23 nM | ND; failed HTS | – |

| Compound | Ki (rat α4β2 nAChR subtype; [2]) | Ki (human α4β2 nAChR subtype; [4]) | α7 high through-put screening outcome (Ki not determined) (α7 nAChR subtype; [5]) | other results |
| --- | --- | --- | --- | --- |
| O=C(c1ncco1)N1CC2CNCC(C2)C1 | 370 nM | 85 nM | ND; failed HTS | – |
| Cc1cc(F)c(C(=O)N2CC3CNCC(C3)C2)o1 | 500 nM | 62 nM | ND; failed HTS | – |
| O=C(c1cc(-c2cc(F)cc(F)c2)co1)N1CC2CNCC2C1 (centres unmarked) | 54 nM | 24 nM | ND; failed HTS | – |
| O=C(c1cc(-c2ccoc2)co1)N1CC2CNCC2C1 (centres unmarked) | 110 nM | 95 nM | ND; failed HTS | – |
| O=C(c1ccoc1)N1CC2CNCC2C1 (centres unmarked) | – | 220 nM | – | Ki (rat α4β2 nAChR subtype): 53 nM; Ki (α7 nAChR subtype; [3]): 3100 nM |
| O=C(c1cc(Br)co1)N1CC2CNCC2C1 (centres unmarked) | 29 nM | 18 nM | ND; failed HTS | – |
| Cc1ccc(C(=O)N2CC3CNCC(C3)C2)o1 | 100 nM | 42 nM | – | α7 high through-put screening outcome (Ki not determined) (α7 nAChR subtype): ND; failed HTS |
| C#Cc1ccc(C(=O)N2CC3CNCC3C2)o1 (centres unmarked) | 140 nM | 48 nM | ND; failed HTS | – |
| O=C(c1ccc(Cl)o1)N1CC2CNCC2C1 (centres unmarked) [N-(5-chlorofuran-2-ylcarbonyl)-3,7-diazabicyclo[3.3.0]octane] | 33 nM | 28 nM | – | activity in object recognition (OR) ([1]; 0.1 mg/kg (FIG. 1)): active; Ki (α7 nAChR subtype; [3]): 91000 nM |
| O=C(c1cc(Br)no1)N1CC2CNCC(C2)C1 | 5.9 nM | – | ND; failed HTS | Ki (human α4β2 nAChR subtype): 18 nM |
| Cc1oc(C(=O)N2CC3CNCC3C2)cc1Br (centres unmarked) | – | 22 nM | ND; failed HTS | Ki (rat α4β2 nAChR subtype): 20 nM |
| N#Cc1ccoc1C(=O)N1CC2CNCC2C1 (centres unmarked) | – | – | – | Ki (rat α4β2 nAChR subtype): 25 nM; α7 high through-put screening outcome (Ki not determined) (α7 nAChR subtype): ND; failed HTS; Ki (human α4β2 nAChR subtype): 14 nM |
| O=C(c1cnco1)N1CC2CNCC(C2)C1 | 28 nM | 26 nM | ND; failed HTS | – |
| O=C(c1cc(Cl)co1)N1CC2CNCC(C2)C1 | – | 5.2 nM | ND; failed HTS | Ki (rat α4β2 nAChR subtype): 13 nM |
| O=C(c1occc1Cl)N1CC2CNCC(C2)C1 | – | 29 nM | ND; failed HTS | Ki (rat α4β2 nAChR subtype): 96 nM |
| O=C(c1ccco1)N1CC2CNCC2C1 (centres unmarked) [N-(furan-2-ylcarbonyl)-3,7-diazabicyclo[3.3.0]octane] | 20 nM | 33 nM | – | Ki (α7 nAChR subtype; [3]): 13000 nM |
